Results reported in patent US20080288176A1 (priority 2005, published 2008).
Each block holds one compound with its values, some of them ahead of it.

Experiments:
[1] = Hydrolysis in rat intestinal microsomes; type: in vitro ADME
Excerpt: (§1) The physiologically based pharmacokinetic/pharmacodynamic model of the present invention contains a series of compartments that describe the time course of a nonsteroidal anti-inflammatory prodrug, its active metabolites and nitric oxide release in intestine, liver, kidneys, blood/plasma and heart after prodrug administration. The time course of the prodrug, its active metabolites and nitric oxide release can be simulated using a series of in vitro and in silico inputs. The stability of each component in the gastrointestinal lumen is estimated using data collected from artificial gastric and intestinal juice. Intestinal metabolism is estimated using intestinal microsomes and absorption rate is estimated using permeability data collected from a cell monolayer such as Caco-2. Hepatic elimination is estimated using liver microsomes and stability in plasma is calculated using degradation of each component in the media. Plasma protein binding can either be measured using a standardized in vitro method or it can be estimated using an in silico method. The distribution of each component in various parts of the body is estimated using an in silico method. The rate of nitric oxide release is estimated using an in vitro endothelial cell model. The time course of prodrug, its active metabolites and nitric oxide can be simulated in human and animal using this physiologically based pharmacokinetic/pharmacodynamic model provided that the corresponding in vitro and in silico data are used as inputs.
(§2) Representative in vitro tests or in silico estimates include: (a) pKa estimation or measurement; (b) Log P measurement or in silico estimation; (c) Solubility in various physiological fluids; (d) Permeability. Caco-2 and/or NOVOKIN's proprietary animal and human cell lines can be used to obtain this parameter; (e) Metabolic rate in the intestine and liver. Human or animal intestinal microsomes, S9 fraction, and cytosol can be used for this purpose. Human or animal hepatocytes, liver microsomes, S9 fraction, and cytosol can also be used; (f) Hydrolysis in human or animal plasma; (g) Serum or plasma protein binding. It can be measured in vitro or estimated in silico; (h) The rate of NO release; (i) Existing pharmacokinetic and pharmacodynamic data of NSAID or a biocompatible agent; (j) Existing NO release rate of known diazeniumdiolate if applicable; (k) Stability in gastric and intestinal environment; and (l) In silico volume of distribution estimation.
(§3) Whenever in vitro estimate is attainable, the in vitro results will be used, for example, plasma protein binding. Methods reported by Bowalgaha & Miners (2001), Martignoni et al. (2006), Tong et al. (2001) and Thulesen et al. (1999) were used for in vitro and in vivo scale-up for clearance in the intestine, absorption rate constant and hepatic clearance. The simulation begins with no material in all compartments except for the initial bolus in one compartment (typically the stomach compartment). The simulation then estimates the changing distribution of the material with time.

[2] = Hydrolysis in human intestinal microsomes; type: in vitro ADME
Excerpt: as §1
The selection of in vitro tests is designed to provide parameters for the above mentioned model. The use of an inappropriate test would result in wrong predictions. For example, Knaus et al. (2005) used guinea pig serum and porcine esterases to hydrolyze their O^2-substituted diazeniumdiolate derivatives of ASPIRIN, as disclosed in U.S. Ser. No. 60/681,842. These tests provided very little information in terms of in vivo human NO-NSAID metabolism rate and the extent to which metabolic conversion to NO donor and NSAID occurred. […] The half-life values were less than one minute. Based on these observations, it has become apparent that prior to entering the systemic circulation, it is likely that the NO-NSAID would have been hydrolyzed in the enterocytes and little or no NO-NSAID would have been detected in the blood stream. Furthermore, the release of NO will commence immediately once the NO donor is detached from the NSAID.
as §2, §3

[3] = Hydrolysis in rat liver microsomes; type: in vitro ADME
Excerpt: as §1, §2, §3

[4] = Hydrolysis in human liver microsomes; type: in vitro ADME
Excerpt: as §1, with “The” for “The physiologically based pharmacokinetic/pharmacodynamic model of the present invention contains a series of compartments that describe the time course of a nonsteroidal anti-inflammatory prodrug, its active metabolites and nitric oxide release in intestine, liver, kidneys, blood/plasma and heart after prodrug administration. The”
The selection of in vitro tests is designed to provide parameters for the above mentioned model. The use of an inappropriate test would result in wrong predictions.
as §2
The simulation begins with no material in all compartments except for the initial bolus in one compartment (typically the stomach compartment). The simulation then estimates the changing distribution of the material with time.

[5] = Stability in gastric environment (gastric decay rate); type: in vitro ADME
Excerpt: as §1, §2

[6] = Stability in intestinal lumen (decay rate); type: in vitro ADME
Excerpt: as §1, §2

Hydrolysis in rat plasma = type: in vitro ADME
Excerpt: as §1, §2

[7] = Hydrolysis in various enzymatic preparations (rat and human intestinal and liver microsomes)
[8] = Chemical stability (loss of diazeniumdiolate) in phosphate buffer; type: physicochemical
Procedure: They varied only in the nitrogen substituent of the amino acid, i.e. free amine (1), acetyl (2) and pivaloyl (3) groups. Their chemical stability was evaluated in phosphate buffer at different pH's over a 30 minute period (Table 11).

[9] = Enzymatic hydrolysis in liver microsomal preparations (LC-MS); type: in vitro ADME; conditions: for Time to complete hydrolysis (cleavage of the diazeniumdiolate): liver microsomal preparations
Procedure: The sensitivity of the prodrug 3 towards enzymatic hydrolysis was evaluated by LC-MS. Liver and intestinal microsomal preparations were used. […] However, these rates were slower than the enzymatic hydrolysis rates determined for the conversion of 1→4 and 2→5 (complete hydrolysis observed in 10 and 30 minutes respectively in liver microsomal preparations).

male Wistar rats [10] = assay: Gastric ulcer index after oral dosing; type: in vivo, rat; conditions: for Ulcer Indices, Mean: oral gavage, naproxen 250 mg/kg or molar equivalent (ROF 250 mg/kg), 6 h after dosing, mean aggregate gastric ulcer length; for Ulcerogenicity (in words): oral, 6 h
Procedure: (§4) Table 1 is a summary of the protocol for a study which was conducted in male Wistar rats weighing 275-300 grams. The animals were allowed to acclimatize for at least five days prior to the commencement of the study. The study protocol was approved by the local animal ethics committee.
(§5) The animals were fasted overnight prior to test substance administration. The test substance was administered orally by gavage on the morning of the study day. All test animals had blood collected during the test period in both EDTA (ethylenediaminetetraacetic acid) tubes and SST (Serum Separator Tubes) at 1, 3 and 6 hours after dosing. Blood was collected into EDTA tubes only at 1 and 3 hours by tail tip amputation. Volume of blood collected was between 0.5 and 1 mL at each of these collections. The final collection was by puncture of the abdominal vena cava under isoflurane general anesthesia. Final blood collection was targeted as follows: 1st EDTA #1—1.5 mL; 2nd SST—1.5 mL; 3rd EDTA #2—as much as possible.
Each animal from all groups underwent a full necropsy under the supervision of a board certified veterinary pathologist. The stomach of each rat was cut along the greater curvature, contents removed into a polypropylene (Falcon) tube, the mucosa rinsed with saline and any obvious ulcers or erosions were measured along the longest axis. This measurement was recorded for each ulcer or erosion observed in each stomach. The falcon tubes and their contents were frozen at −80° C. and shipped to Novokin on dry ice for analysis.
The aggregate length of all gastric ulcers found in a given animal was calculated. The mean aggregate ulcer length across animals in a group was calculated. This mean value was reported as the ulcer index for that group.
The ulcer index of each modified drug was compared with the ulcer index of its associated parent drug and the controls using analysis of variance and Duncan's multiple range test for pairwise comparisons. Statistical analysis was done using SAS® (SAS Institute Inc., Cary, N.C.).

[11] = Serum nitrate concentration (NO release) after oral dosing; type: in vivo, rat; conditions: male Wistar rats, oral gavage, at 6 hours
Procedure: as §4, §5
EDTA samples were centrifuged, and the plasma portion was collected and frozen at −80° C. SST samples were incubated at 37° C. for approximately 45 minutes, centrifuged, and the serum was collected and frozen at −80° C. until analysis.

[12] = tested on: cardiac tissue prostacyclin (PGI2) to thromboxane A2 (TXB2) ratio; assay: Cardiac tissue prostacyclin to thromboxane ratio; type: in vivo, rat; conditions: male Wistar rats; for PGI2/TXA2 ratio comparison (in words): cardiac tissue; for Cardiac Tissue PGI2/TXB2, Mean: oral gavage, heart removed 6 hours after dosing
Excerpt: (§6) Myocardial infarction and ischemic events in high risk patients led one of the most popular COX-2 inhibitors to its demise (Bresalier et al., 2005). Non-selective NSAIDS may also cause similar problems due to their ability to inhibit COX-2. […] Adenosine diphosphate (ADP) generation is an indicator of myocardial infarction which has no connection with the arachidonic acid cascade (Borna et al., 2005). […] Long term NSAID use has been linked to kidney damage and hypertension (Zafirovska et al., 1993). […] This was associated with an increase in the urine the ratio of alanine-amino-peptidase (AAP) and creatinine.
as §4
All rats were euthanized by removal of the heart 6 hours after initial dosing, following final blood collections. Immediately after terminal blood collections were complete, the thorax was opened and the heart removed. The heart was cut in half longitudinally. Half of the heart was placed in formalin for histological examination. The other half was quickly rinsed in saline and then freeze-clamped (crushed between the jaws of a pair of modified tongs, cooled by liquid nitrogen). An entire kidney was freeze-clamped. The other kidney was left in situ for examination by the pathologist. Freeze-clamped tissues were wrapped in labeled aluminum foil and stored in liquid nitrogen until they could be transferred to a −80° C. freezer. Freeze-clamped tissues were shipped on dry ice to NOVOKIN for analysis.

male Wistar rats [13] = assay: Urine alanine aminopeptidase to creatinine ratio (proximal tubular kidney damage); type: in vivo, rat; conditions: for AAP/Cr (urine alanine aminopeptidase to creatinine), Mean: oral gavage, urine collected for 6 hours
Excerpt: as §6, §4
(§7) All test animals, housed in metabolic cages, had urine collected over wet ice for 6 hours after dosing. Aliquots of the urine from each animal were collected to determine creatinine concentration. The remainder of the urine was centrifuged at 1000 g for 10 minutes. The supernatant was collected and mixed with analytical grade ethylene glycol at a rate of 0.4 mL ethylene glycol per 1 mL urine supernatant. The ethylene glycol/urine mixture was stored at −80° C. until analysis.

male Wistar rats [14] = assay: Urine N-acetylglucosaminidase to creatinine ratio (distal tubule toxicity); type: in vivo, rat; conditions: oral gavage, urine collected for 6 hours
Procedure: as §4, §7

- Chemical stability (in words) ([8]; pH range 2.5-7.0, 30 minute period): underwent rapid degradation
- Time to complete hydrolysis (cleavage of the diazeniumdiolate) [9]: 10 min
SMILES: COc1ccc2cc(C(C)C(=O)OC3CNC(C(=O)OCON=[N+]([O-])N(C)C)C3)ccc2c1 (stereo not shown) [Compound 1]

- Stability (loss of diazeniumdiolate), pH 2.5 ([8]; 30 min, pH 2.5): ✓
- Stability (loss of diazeniumdiolate), pH 5.0 ([8]; 30 min, pH 5.0): ✓
- Chemical stability (in words) ([8]; pH 2.5-5.0, 30 minute period): stable
- Chemical stability (in words) ([8]; pH 7.0, 30 minute period): much slower rate of decomposition
- Time to complete hydrolysis (cleavage of the diazeniumdiolate) [9]: 30 min
SMILES: COc1ccc2cc(C(C)C(=O)OC3CC(C(=O)OCON=[N+]([O-])N(C)C)N(C(C)=O)C3)ccc2c1 (stereo not shown) [Compound 2]

- Time to complete hydrolysis (initial cleavage of both esters) ([9]; liver microsomes): 30 min
SMILES: COc1ccc2cc(C(C)C(=O)OCOC(=O)CCC(NC(C)=O)C(=O)OCOC(=O)C(C)c3ccc4cc(OC)ccc4c3)ccc2c1 (stereo not shown) [Compound 9]

Second part, the compound before the results:

SMILES: COc1ccc2cc(C(C)C(=O)OCOC(=O)CCC(NC(=O)C(C)(C)C)C(=O)OCON=[N+]([O-])N(C)C)ccc2c1 (stereo not shown) [CMD 113]
- intestinal molar percent conversion to Naproxen [1]: 62%
- intestinal microsomal activity ([1]; model input): 2 mL/min/organ
- intestinal molar percent conversion to Naproxen [2]: 75%
- intestinal microsomal activity ([2]; model input): 4813 mL/min/organ
- liver molar percent conversion to Naproxen [3]: 90%
- liver microsomal activity ([3]; model input): 6545 mL/min/organ
- liver molar percent conversion to Naproxen [4]: 72%
- liver microsomal activity ([4]; model input): 434763 mL/min/organ
- gastric decay rate constant ([5]; Human): 0 /mint
- gastric decay rate constant ([5]; Rat): 0 /mint
- intestinal lumen decay rate constant ([6]; Human): 0.2 min⁻¹
- intestinal lumen decay rate constant ([6]; Rat): 0.2 min⁻¹
- Hydrolysis of the NO-AA in rat plasma (in words) (Hydrolysis in rat plasma; NO-AA formed from the prodrug): relatively fast rate
- plasma decay rate constant (Hydrolysis in rat plasma; Rat): 1.2 min⁻¹
- NO-AA half-life in plasma (Hydrolysis in rat plasma; Rat, NO-AA formed from the prodrug): 9.2 min
- Stability of the NO-AA formed (in words) ([7]; intestinal and liver microsomes of human and rats): relatively stable
- Initial loss of the prodrug candidate (in words) ([7]; various enzymatic preparations): rapid initial loss

SMILES: COc1ccc2cc(C(C)C(=O)OCON=[N+]([O-])N(C)C)ccc2c1 (stereo not shown) [DMA-NO-NAP, dimethylamino-diazeniumdiolate-naproxen]
- Ulcer Indices, Mean (male Wistar rats [10]): 1.695
- Ulcerogenicity (in words) (male Wistar rats [10]): somewhat less ulcerogenic
- Serum Nitrate Concentrations, Mean [11]: 768.000
- PGI2/TXA2 ratio comparison (in words) [12]: achieving statistical significance (p<0.05)
- Cardiac Tissue PGI2/TXB2, Mean [12]: 5.157
- AAP/Cr (urine alanine aminopeptidase to creatinine), Mean (male Wistar rats [13]): 132.412
- Urine NAG/Cr values, Mean (male Wistar rats [14]): 20.403

SMILES: CS(=O)(=O)c1ccc(C2=C(c3ccccc3)C(=O)OC2)cc1 [ROF, Rofecoxib]
- Ulcer Indices, Mean (male Wistar rats [10]): 0.000
- Ulcerogenicity (in words) (male Wistar rats [10]): not significantly different from vehicle
- Serum Nitrate Concentrations, Mean [11]: 55.818
- PGI2/TXA2 ratio comparison (in words) [12]: lower ratios than vehicle
- Cardiac Tissue PGI2/TXB2, Mean [12]: 2.765
- Urine AAP/creatinine ratio change (in words) (male Wistar rats [13]): did cause an increase
- AAP/Cr (urine alanine aminopeptidase to creatinine), Mean (male Wistar rats [13]): 538.367
- Urine NAG/Cr values, Mean (male Wistar rats [14]): 24.176
